The target of the assay is human F508del-CFTR (Homo sapiens, UniProt P13569, DEL508-508). The experiment in a line: F508del-CFTR cell surface expression (corrector activity), DiscoveRx ß-galactosidase complementation chemiluminescence assay in recombinant U2OS cell line.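 As to all read-outs here: U2OS cells co-expressing ProLink-tagged F508del-CFTR and a membrane-anchored enzyme acceptor, where more surface CFTR restores β-galactosidase activity measured by chemiluminescence.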 To be noted: U2OS cell line, 16h compound incubation; for EC50: EC50, F508del-CFTR cell surface expression, geomean values; for Emax: U2OS, in relation to the Emax of the corrector lumacaftor (=100%), arithmetic mean values.

Results on 14 compounds are retold here after patent publication US20240208992A1, “MACROCYCLES AS CFTR MODULATORS” (Idorsia Pharmaceuticals Ltd, priority 2021, published 2024).

Sequence of human F508del-CFTR (P13569 with tags, fused parts or gaps DEL508-508): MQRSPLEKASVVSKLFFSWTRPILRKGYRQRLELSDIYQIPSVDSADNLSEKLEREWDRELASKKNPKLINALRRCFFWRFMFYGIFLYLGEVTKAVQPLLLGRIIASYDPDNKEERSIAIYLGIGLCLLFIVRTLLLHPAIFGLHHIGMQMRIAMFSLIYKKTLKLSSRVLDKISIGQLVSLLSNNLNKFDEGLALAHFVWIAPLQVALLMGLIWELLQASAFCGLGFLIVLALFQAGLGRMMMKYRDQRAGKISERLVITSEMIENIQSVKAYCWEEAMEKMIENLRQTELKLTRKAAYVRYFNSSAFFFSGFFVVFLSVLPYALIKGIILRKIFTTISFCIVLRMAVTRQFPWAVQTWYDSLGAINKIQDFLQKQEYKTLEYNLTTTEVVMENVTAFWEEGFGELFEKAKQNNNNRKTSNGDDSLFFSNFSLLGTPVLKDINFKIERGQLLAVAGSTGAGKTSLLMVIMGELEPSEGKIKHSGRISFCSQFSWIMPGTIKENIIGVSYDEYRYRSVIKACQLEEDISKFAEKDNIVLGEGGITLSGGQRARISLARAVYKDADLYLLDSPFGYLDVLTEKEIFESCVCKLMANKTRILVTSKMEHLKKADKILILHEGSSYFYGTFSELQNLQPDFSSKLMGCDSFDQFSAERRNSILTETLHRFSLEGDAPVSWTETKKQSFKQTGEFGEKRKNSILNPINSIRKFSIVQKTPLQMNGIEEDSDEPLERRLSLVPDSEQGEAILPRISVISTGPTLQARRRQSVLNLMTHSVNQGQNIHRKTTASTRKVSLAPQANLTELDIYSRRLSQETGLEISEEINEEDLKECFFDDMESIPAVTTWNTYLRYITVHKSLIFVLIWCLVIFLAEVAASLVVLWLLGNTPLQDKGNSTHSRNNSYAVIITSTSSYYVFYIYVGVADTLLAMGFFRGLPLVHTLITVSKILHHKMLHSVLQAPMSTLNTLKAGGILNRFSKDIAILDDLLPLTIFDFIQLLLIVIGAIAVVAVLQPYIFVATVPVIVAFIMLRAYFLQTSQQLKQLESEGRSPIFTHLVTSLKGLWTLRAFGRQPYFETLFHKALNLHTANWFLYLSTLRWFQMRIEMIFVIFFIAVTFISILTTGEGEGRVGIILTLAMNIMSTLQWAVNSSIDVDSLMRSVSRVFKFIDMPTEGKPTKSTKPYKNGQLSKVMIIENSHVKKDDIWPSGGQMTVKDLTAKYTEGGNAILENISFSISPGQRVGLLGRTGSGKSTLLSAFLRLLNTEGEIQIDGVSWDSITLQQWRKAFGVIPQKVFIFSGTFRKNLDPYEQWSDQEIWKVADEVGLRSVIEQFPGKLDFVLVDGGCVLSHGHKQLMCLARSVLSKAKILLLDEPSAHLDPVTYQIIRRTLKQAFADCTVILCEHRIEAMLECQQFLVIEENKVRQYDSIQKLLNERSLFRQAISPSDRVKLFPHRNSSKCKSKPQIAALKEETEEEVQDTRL

What is called EC50 is the concentration at which the effect is half-maximal. As a reminder, the Emax is the size of the effect at its maximum, as opposed to the concentration needed. In the case of `COc1cccc(CCNC(=O)[C@@H]2CC(=O)N(C)[C@@H](CC(C)C)C(=O)N(C)C3(CC3)C(=O)N[C@H](Cc3ccccc3)COc3cnc4ccc(F)cc4c3C(=O)N2)c1` [Example 131, (3′S,7′S,13′R)-13′-benzyl-20′-fluoro-7′-isobutyl-N-(3-methoxyphenethyl)-6′,9′-dimethyl-1′,5′,8′,11′-tetraoxo-2′,3′,4′,5′,6′,7′,8′,9′,11′,12′,13′,14′-dodecahydro-1′H-spiro[cyclopropane-1,10′-[1]oxa[4,7,10,14]tetraazacycloheptadecino[17,16-c]quinoline]-3′-carboxamide], the EC50 worked out at 0.127 µM and the Emax stood at 320%.
For the compound `CC(C)C[C@H]1C(=O)N(C)C2(CC2)C(=O)N[C@H](Cc2ccccc2)COc2cnc3ccc(F)cc3c2C(=O)N[C@H](C(=O)NCCc2c(F)cccc2F)CC(=O)N1C` [Example 132, (3′S,7′S,13′R)-13′-benzyl-N-(2,6-difluorophenethyl)-20′-fluoro-7′-isobutyl-6′,9′-dimethyl-1′,5′,8′,11′-tetraoxo-2′,3′,4′,5′,6′,7′,8′,9′,11′,12′,13′,14′-dodecahydro-1′H-spiro[cyclopropane-1,10′-[1]oxa[4,7,10,14]tetraazacycloheptadecino[17,16-c]quinoline]-3′-carboxamide], the EC50 worked out at 0.11 µM and the Emax was 313%.
Consider `CC(C)C[C@H]1C(=O)N(C)C2(CC2)C(=O)N[C@H](Cc2ccccc2)COc2cnc3ccc(F)cc3c2C(=O)N[C@H](C(=O)NCCc2ccc(-c3cnccn3)cc2)CC(=O)N1C` [Example 133, (3′S,7′S,13′R)-13′-benzyl-20′-fluoro-7′-isobutyl-6′,9′-dimethyl-1′,5′,8′,11′-tetraoxo-N-(4-(pyrazin-2-yl)phenethyl)-2′,3′,4′,5′,6′,7′,8′,9′,11′,12′,13′,14′-dodecahydro-1′H-spiro[cyclopropane-1,10′-[1]oxa[4,7,10,14]tetraazacycloheptadecino[17,16-c]quinoline]-3′-carboxamide], for which the EC50 is 0.149 µM and the Emax was 213%.
In the same order, the values of `CC(C)C[C@H]1C(=O)N(C)C2(CC2)C(=O)N[C@H](Cc2ccccc2)COc2cnc3ccc(F)cc3c2C(=O)N[C@H](C(=O)NCCc2cccc(-c3cnccn3)c2)CC(=O)N1C` [Example 134, (3′S,7′S,13′R)-13′-benzyl-20′-fluoro-7′-isobutyl-6′,9′-dimethyl-1′,5′,8′,11′-tetraoxo-N-(3-(pyrazin-2-yl)phenethyl)-2′,3′,4′,5′,6′,7′,8′,9′,11′,12′,13′,14′-dodecahydro-1′H-spiro[cyclopropane-1,10′-[1]oxa[4,7,10,14]tetraazacycloheptadecino[17,16-c]quinoline]-3′-carboxamide] are 0.506 µM and 150%.
In the same order, the values of `CC(C)C[C@H]1C(=O)N(C)C2(CC2)C(=O)N[C@H](Cc2ccccc2)COc2cnc3ccc(F)cc3c2C(=O)N[C@H](C(=O)NCCc2ccc(-n3nccn3)cc2)CC(=O)N1C` [Example 135, (3′S,7′S,13′R)-N-(4-(2H-1,2,3-triazol-2-yl)phenethyl)-13′-benzyl-20′-fluoro-7′-isobutyl-6′,9′-dimethyl-1′,5′,8′,11′-tetraoxo-2′,3′,4′,5′,6′,7′,8′,9′,11′,12′,13′,14′-dodecahydro-1′H-spiro[cyclopropane-1,10′-[1]oxa[4,7,10,14]tetraazacycloheptadecino[17,16-c]quinoline]-3′-carboxamide] are 0.177 µM and 255%.
In the same order, the values of `CC(C)C[C@H]1C(=O)N(C)C2(CC2)C(=O)N[C@H](Cc2ccccc2)COc2cnc3ccc(F)cc3c2C(=O)N[C@H](C(=O)NCCc2cccc(-n3nccn3)c2)CC(=O)N1C` [Example 136, (3′S,7′S,13′R)-N-(3-(2H-1,2,3-triazol-2-yl)phenethyl)-13′-benzyl-20′-fluoro-7′-isobutyl-6′,9′-dimethyl-1′,5′,8′,11′-tetraoxo-2′,3′,4′,5′,6′,7′,8′,9′,11′,12′,13′,14′-dodecahydro-1′H-spiro[cyclopropane-1,10′-[1]oxa[4,7,10,14]tetraazacycloheptadecino[17,16-c]quinoline]-3′-carboxamide] are 0.27 µM and 271%.
As to `CC(C)C[C@H]1C(=O)N(C)C2(CC2)C(=O)N[C@H](Cc2ccccc2)COc2cnc3ccc(F)cc3c2C(=O)N[C@H](C(=O)NCCc2ccc(-c3ncccn3)cc2)CC(=O)N1C` [Example 137, (3′S,7′S,13′R)-13′-benzyl-20′-fluoro-7′-isobutyl-6′,9′-dimethyl-1′,5′,8′,11′-tetraoxo-N-(4-(pyrimidin-2-yl)phenethyl)-2′,3′,4′,5′,6′,7′,8′,9′,11′,12′,13′,14′-dodecahydro-1′H-spiro[cyclopropane-1,10′-[1]oxa[4,7,10,14]tetraazacycloheptadecino[17,16-c]quinoline]-3′-carboxamide], the EC50 came to 0.254 µM and the Emax was determined as 311%.
As for `CC(C)C[C@H]1C(=O)N(C)C2(CC2)C(=O)N[C@H](Cc2ccccc2)COc2cnc3ccc(F)cc3c2C(=O)N[C@H](C(=O)NCCc2cccc(-c3ncccn3)c2)CC(=O)N1C` [Example 138, (3′S,7′S,13′R)-13′-benzyl-20′-fluoro-7′-isobutyl-6′,9′-dimethyl-1′,5′,8′,11′-tetraoxo-N-(3-(pyrimidin-2-yl)phenethyl)-2′,3′,4′,5′,6′,7′,8′,9′,11′,12′,13′,14′-dodecahydro-1′H-spiro[cyclopropane-1,10′-[1]oxa[4,7,10,14]tetraazacycloheptadecino[17,16-c]quinoline]-3′-carboxamide], the EC50 stood at 0.538 µM and the Emax is 292%.
In the same order, the values of `CC(C)C[C@H]1C(=O)N(C)C2(CC2)C(=O)N[C@H](Cc2ccccc2)COc2cnc3ccc(F)cc3c2C(=O)N[C@H](C(=O)NCCc2cnn(C3CC3)c2)CC(=O)N1C` [Example 139, (3′S,7′S,13′R)-13′-benzyl-N-(2-(1-cyclopropyl-1H-pyrazol-4-yl)ethyl)-20′-fluoro-7′-isobutyl-6′,9′-dimethyl-1′,5′,8′,11′-tetraoxo-2′,3′,4′,5′,6′,7′,8′,9′,11′,12′,13′,14′-dodecahydro-1′H-spiro[cyclopropane-1,10′-[1]oxa[4,7,10,14]tetraazacycloheptadecino[17,16-c]quinoline]-3′-carboxamide] are 0.463 µM and 381%.
In the same order, the values of `CC(C)C[C@H]1C(=O)N(C)C2(CC2)C(=O)N[C@H](Cc2ccccc2)COc2cnc3ccc(F)cc3c2C(=O)N[C@H](C(=O)NCCc2nc(C3CC3)no2)CC(=O)N1C` [Example 140, (3′S,7′S,13′R)-13′-benzyl-N-(2-(3-cyclopropyl-1,2,4-oxadiazol-5-yl)ethyl)-20′-fluoro-7′-isobutyl-6′,9′-dimethyl-1′,5′,8′,11′-tetraoxo-2′,3′,4′,5′,6′,7′,8′,9′,11′,12′,13′,14′-dodecahydro-1′H-spiro[cyclopropane-1,10′-[1]oxa[4,7,10,14]tetraazacycloheptadecino[17,16-c]quinoline]-3′-carboxamide] are 0.142 µM and 318%.
As for `Cc1cc(CCNC(=O)[C@@H]2CC(=O)N(C)[C@@H](CC(C)C)C(=O)N(C)C3(CC3)C(=O)N[C@H](Cc3ccccc3)COc3cnc4ccc(F)cc4c3C(=O)N2)no1` [Example 141, (3′S,7′S,13′R)-13′-benzyl-20′-fluoro-7′-isobutyl-6′,9′-dimethyl-N-(2-(5-methylisoxazol-3-yl)ethyl)-1′,5′,8′,11′-tetraoxo-2′,3′,4′,5′,6′,7′,8′,9′,11′,12′,13′,14′-dodecahydro-1′H-spiro[cyclopropane-1,10′-[1]oxa[4,7,10,14]tetraazacycloheptadecino[17,16-c]quinoline]-3′-carboxamide], the EC50 was found to be 0.313 µM and the Emax was 331%.
In the same order, the values of `CC(C)C[C@H]1C(=O)N(C)C2(CC2)C(=O)N[C@H](Cc2ccccc2)COc2cnc3ccc(F)cc3c2C(=O)N[C@H](C(=O)NCCc2cc(C3CC3)on2)CC(=O)N1C` [Example 142, (3′S,7′S,13′R)-13′-benzyl-N-(2-(5-cyclopropylisoxazol-3-yl)ethyl)-20′-fluoro-7′-isobutyl-6′,9′-dimethyl-1′,5′,8′,11′-tetraoxo-2′,3′,4′,5′,6′,7′,8′,9′,11′,12′,13′,14′-dodecahydro-1′H-spiro[cyclopropane-1,10′-[1]oxa[4,7,10,14]tetraazacycloheptadecino[17,16-c]quinoline]-3′-carboxamide] are 0.194 µM and 381%.
In the same order, the values of `CC(C)C[C@H]1C(=O)N(C)C2(CC2)C(=O)N[C@H](Cc2ccccc2)COc2cnc3ccc(F)cc3c2C(=O)N[C@H](C(=O)NCCc2cnn(C)c2)CC(=O)N1C` [Example 143, (3′S,7′S,13′R)-13′-benzyl-20′-fluoro-7′-isobutyl-6′,9′-dimethyl-N-(2-(1-methyl-1H-pyrazol-4-yl)ethyl)-1′,5′,8′,11′-tetraoxo-2′,3′,4′,5′,6′,7′,8′,9′,11′,12′,13′,14′-dodecahydro-1′H-spiro[cyclopropane-1,10′-[1]oxa[4,7,10,14]tetraazacycloheptadecino[17,16-c]quinoline]-3′-carboxamide] are 0.922 µM and 320%.
For `CC(C)C[C@H]1C(=O)N(C)C2(CC2)C(=O)N[C@H](Cc2ccccc2)COc2cnc3ccc(F)cc3c2C(=O)N[C@H](C(=O)NCCc2noc(C3CC3)n2)CC(=O)N1C` [Example 144, (3′S,7′S,13′R)-13′-benzyl-N-(2-(5-cyclopropyl-1,2,4-oxadiazol-3-yl)ethyl)-20′-fluoro-7′-isobutyl-6′,9′-dimethyl-1′,5′,8′,11′-tetraoxo-2′,3′,4′,5′,6′,7′,8′,9′,11′,12′,13′,14′-dodecahydro-1′H-spiro[cyclopropane-1,10′-[1]oxa[4,7,10,14]tetraazacycloheptadecino[17,16-c]quinoline]-3′-carboxamide], the EC50 was found to be 0.211 µM and the Emax was found to be 327%.
